“Also recorded” adds a separate entry of the source.
Experiments:
BJRiPS-CMs = assay: Western blot and densitometry (MDM2, p53, TNNI3) and cell cycle analysis of BJRiPS-derived cardiomyocytes; format: cell-based, human; conditions: pifithrin-α 10 μM with Torin1 200 nM for 7 days
Method: FIG. 6A provides a schematic showing proposed mechanism of cardiomyocyte maturation. T3, triiodothyronine. […] FIG. 6C provides representative Western blot of MDM2, p53, TNNI3, and β-tubulin from BJRiPS-derived cardiomyocyte lysates treated with control (DMSO), nutlin-3a Å˜24 hours (10 μmol/L), Torin1 Å˜7 days (200 nmol/L), or Torin1 Å˜7 days (200 nmol/L)+nutlin-3a (10 μmol/L) for 24 hours beginning ≈2 days after onset of beating (nutlin-3a was only administered during the first 24 hours of Torin1 treatment). Cells harvested on final day of treatment, BJRiPS-CMs. […] DMSO indicates dimethylsulfoxide; mTOR, mechanistic target of rapamycin; and TNNT2+ BJRiPS-CMs, troponin T2, cardiac type-positive BJ fibroblast-derived RNA-induced pluripotent stem cell-derived cardiomyocytes.
FIG. 14A provides representative western blot of p53, phospho-53, p21 (CDKN1a), GATA4, NKX2.5, and β-tubulin from Gibco iPS-CM lysates treated with 0 (DMSO), 10, 50, or 200 nM Torin1 for 7 days starting ˜2 days after onset of beating. Cells harvested on final day of treatment. FIG. 14B provides cell cycle analysis showing percentage of TNNT2+ BJRiPS-CMs in G0, G1 or S/G2/M phases after treatment with vehicle (DMSO, dimethylsulfoxide), pifithrin-α (10 μM) for 1 week, Torin1 (200 nM) for 7 days or simultaneous treatment with pifithrin-α (10 μM) and Torin1 (200 nM) for 7 days starting ˜2 days after onset of beating. n=3 per group, *p<0.05, **p<0.01, ***p<0.001, ****p<0.0001 by two-way ANOVA with Tukey's multiple comparisons test. FIG. 14C provides representative western blot of p53, TNNI3, p21, and β-tubulin from BJRiPS-derived cardiomyocyte lysates treated with control (DMSO), Torin1 (200 nM), pifithrin-α (10 PM) or Torin1 (200 nM)+pifithrin-α (10 μM) for 7 days beginning ˜2 days after onset of beating. Cells harvested on final day of treatment.

iPSC-CMs [1] = assay: Flow cytometry of marker expression and live cells in iPSC-CMs treated in 3D culture; format: cell-based, human
Method: (§1) The UCSD142i-86-1 cell line was used to generate preliminary data. UCSD142i-86-1 cells were differentiated into cardiomyocytes according to previously published protocols (9) adapted to three-dimensional culture in the laboratory. Two days after onset of beating (around day 9 of differentiation), cardiomyocytes were treated with vehicle (DMSO) or different concentrations of quercetin for different time periods. Cells were harvested for qPCR, western, or flow cytometry at different time points.

iPSC-CMs [2] = assay: qPCR of PPARGC1a mRNA in iPSC-CMs treated in 3D culture; format: cell-based, human; conditions: 200 μM for 3 days, FIG. 5
Method: as §1

senescent tumor cells = conditions: literature reference; cited from earlier work
[3] = treatment of iPSC-CMs in 3D culture

| Compound | effects of Torin1 (cell cycle, TNNI3) (BJRiPS-CMs) | percentage of live cells (iPSC-CMs [1]; 200 μM, 2 or 5 day treatment, 3D culture, flow cytometry, FIG. 4A) | percentage of TNNT2+ iPSC-CMs expressing Kir2.1 (iPSC-CMs [1]; 3D culture, flow cytometry, FIG. 2E / FIG. 3A) | mean fluorescence intensity (MFI) of Kir2.1 (iPSC-CMs [1]; 3D culture, flow cytometry, FIG. 2F / FIG. 3B) | % of p53+ TNNT2+ iPSC-CMs (iPSC-CMs [1]; 3D culture, flow cytometry, FIG. 2G / FIG. 3C) | mean fluorescence intensity of p53 (iPSC-CMs [1]; 3D culture, flow cytometry, FIG. 3D) | iPSC-CM maturation (iPSC-CMs [1]; 3D suspension culture, preliminary data) | percentage of TNNT2+ cells out of live cells (cardiomyocytes) (iPSC-CMs [1]; 2 day treatment at 20 or 200 μM, 3D culture, flow cytometry, FIG. 4B) | expression of Kir2.1 (iPSC-CMs [1]; [3]) | expression of p53 (iPSC-CMs [1]; [3]) | mRNA expression of PPARGC1a (iPSC-CMs [2]) | apoptosis in senescent tumor cells (senescent tumor cells) |
| --- | --- | --- | --- | --- | --- | --- | --- | --- | --- | --- | --- | --- |
| Cc1ccc(C(=O)Cn2c3c(sc2=N)CCCC3)cc1 [pifithrin-α] | inhibited |  |  |  |  |  |  |  |  |  |  |  |
| O=c1c(O)c(-c2ccc(O)c(O)c2)oc2cc(O)cc(O)c12 [quercetin] |  | decreases | increases | increases | increases | increases | can enhance | increases | increases | increases | increases; also recorded: significantly increased | can induce apoptosis |
